These results are taken from patent US5057523A, “Dipeptide quinolone derivatives” (Abbott Laboratories, priority 1989, dated 1991).

≈ marks a conversion by molar mass, not a printed value. Counter-ions that a name gives are not always drawn.

In assay [1] the test system is Strep pyogenes EES 61. Description: Second in vitro test, MIC in Brain Heart Infusion Broth (BHIB).
Description: (§1) The in vitro antibacterial activity of the test compounds was determined by conventional agar dilution procedures. The organisms were grown overnight in brain-heart infusion (BHI) broth (Difco 0037-01-6) at 36° C. Twofold dilutions of the stock solution (2000 mcg/mL) of the test compound were made in BHI agar to obtain a test concentration ranging from 200 to 0.005 mcg/mL. The plate was inoculated with approximately 10^4 organisms. It was then incubated at 36° C. for 18 h.
In assay [2] the test system is Stap. Aureus NCTC 10649. Description: Acute mouse protection test. The format is in vivo. As to conditions: mice infected intraperitoneally with Stap. Aureus NCTC 10649, dosed at 1 and 5 hours post-infection.
Assay [3] has as its system E. Coli Juhl. Description: Acute mouse protection test. Format: in vivo. To be noted: mice infected intraperitoneally with E. Coli JUHL, dosed at 1 and 5 hours post-infection.
The subject of assay [4] is E. Coli Juhl. Put plainly: Second in vitro test, MIC in Brain Heart Infusion Broth (BHIB).
Description: as §1
Assay [5] deals with P. Aeruginosa A5007. Description: Acute mouse protection test. To be noted: mice infected intraperitoneally with P. Aeruginosa A5007, dosed at 1 and 5 hours post-infection. Format: in vivo.
For assay [6], the system named is Ps. Aeruginosa A5007. Description: Second in vitro test, MIC in Brain Heart Infusion Broth (BHIB).
Description: as §1
Assay [7] concerns Stap. Aureus CMX 553. Described as above.
Description: as §1

Turning to `NCC(=O)NC1CCN(c2nc3c(cc2F)c(=O)c(C(=O)O)cn3-c2ccc(F)cc2F)C1` (stereo not drawn) [Example 7], the MIC in assay [1] and in assay [4] was 0.78 µg/mL (≈ 1.69 µM) each time. In addition, the “Oral (ED50)” value in assay [2] came to 2.4 mg/kg/day; in assay [3], 5.0 mg/kg/day.
With `CCC[C@H](NC(=O)CNC(=O)CN)C(=O)NC1CCN(c2nc3c(cc2F)c(=O)c(C(=O)O)cn3-c2ccc(F)cc2F)C1` (stereo partly drawn) [Example 30], the “Oral (ED50)” value in assay [5] turned out to be 3.3 mg/kg/day; in assay [2] it was 2.2 mg/kg/day. In addition, the MIC in assay [1] was 100 µg/mL (≈ 162 µM); in assay [4] it was 25 µg/mL (≈ 40.5 µM); in assay [6], > 100 µg/mL; in assay [7] it was 25 µg/mL (≈ 40.5 µM).
Consider `Cl.NCC(=O)N[C@@H](Cc1ccccc1)C(=O)NC1CCN(c2cc3c(cc2F)c(=O)c(C(=O)O)cn3-c2ccc(F)cc2F)C1` (stereo partly drawn) [Example 26jj, 1-(2,4-Difluorophenyl)-6-Fluoro-7-(3-Gly-L-Phe -Amino 1-Pyrrolidinyl)-1,4-Dihydro-4-Oxo-Quinoline-3-Carboxylic Acid Hydrochloride], for which the MIC in assay [1] stood at 32 µg/mL; in assay [4], 16 µg/mL; in assay [6], 64 µg/mL; in assay [7] it was 16 µg/mL.
As to `NC(=O)C[C@H](N)C(=O)NC1CCN(c2nc3c(cc2F)c(=O)c(C(=O)O)cn3-c2ccc(F)cc2F)C1` (stereo partly drawn) [Example 41, 7-(3-L-Asparagine-amino-1-pyrrolidinyl)-1-(2,4-6-fluoro-1,4-dihydro-4-oxo-1,8-difluorophenyl)-3-carboxylic acid hydrochloride], the “Oral (ED50)” value in assay [2] is on record as 2.9 mg/kg/day.
As for `CC(C)CC(N)C(=O)NC1CCN(c2nc3c(cc2F)c(=O)c(C(=O)O)cn3-c2ccc(F)cc2F)C1` (stereo not drawn) [Example 21], the MIC is 6.2 µg/mL (≈ 12 µM) in assay [1] and 25 µg/mL (≈ 48.3 µM) in assay [6]. Further, the “Oral (ED50)” value in assay [2] was 2.4 mg/kg/day.
For the molecule `CCCC(N)C(=O)NC1CCN(c2nc3c(cc2F)c(=O)c(C(=O)O)cn3C2CC2)C1` (stereo not drawn) [Example 26p], the “Oral (ED50)” value in assay [5] was determined as 9.1 mg/kg/day; in assay [2], 4.5 mg/kg/day. The MIC worked out at 3.1 µg/mL (≈ 7.18 µM) in assay [1], 0.39 µg/mL (≈ 0.904 µM) in assay [4] and 0.39 µg/mL (≈ 0.904 µM) in assay [7].
Take `O=C(O)c1cn(-c2ccc(F)cc2F)c2nc(N3CCC(NC(=O)C4CCCN4)C3)c(F)cc2c1=O` (stereo not drawn) [Example 28]: the “Oral (ED50)” value in assay [2] was 3.2 mg/kg/day.
On to `Cl.N[C@@H](CC(=O)O)C(=O)NC1CCN(c2nc3c(cc2F)c(=O)c(C(=O)O)cn3-c2ccc(F)cc2F)C1` (stereo partly drawn) [Example 45, 7-(3-L-Asp-amino-1-pyrrolidinyl)-1-(2,4-difluorophenyl)-6-fluoro-1,4-dihyd ro-4-oxo-1,8-naphthyridine-3-carboxylic acid hydrochloride], for which the entries for the “Oral (ED50)” value in assay [5] and in assay [2] were 13.0 mg/kg/day and 1.5 mg/kg/day, respectively.
For `CC(N)C(=O)NC(Cc1ccccc1)C(=O)NC1CCN(c2nc3c(cc2F)c(=O)c(C(=O)O)cn3-c2ccc(F)cc2F)C1` (stereo not drawn) [Example 11], the “Oral (ED50)” value in assay [2] was determined as 2.0 mg/kg/day. Also, the MIC in assay [4] was 16 µg/mL (≈ 25.7 µM); in assay [7], 16.0 µg/mL (≈ 25.7 µM).
In the case of `CCCC(N)C(=O)NC1CCN(c2cc3c(cc2F)c(=O)c(C(=O)O)cn3-c2ccc(F)cc2)C1` (stereo not drawn) [Example 26h], the “Oral (ED50)” value in assay [2] is listed as 4.0 mg/kg/day. For the same molecule, the MIC in assay [4] amounted to 0.78 µg/mL (≈ 1.61 µM); in assay [6], 6.2 µg/mL (≈ 12.8 µM); in assay [7] it was 0.78 µg/mL (≈ 1.61 µM).
As to `NC(Cc1ccc(O)cc1)C(=O)NC1CCN(c2nc3c(cc2F)c(=O)c(C(=O)O)cn3-c2ccc(F)cc2F)C1` (stereo not drawn) [Example 13], in assay [2], the “Oral (ED50)” value is recorded as 1.7 mg/kg/day. In assay [6], the MIC came to 50 µg/mL (≈ 88.1 µM).
Consider `CC(C)CC(N)C(=O)NC1CCN(c2nc3c(cc2F)c(=O)c(C(=O)O)cn3C2CC2)C1` (stereo not drawn) [Example 26o], for which the “Oral (ED50)” value in assay [5] is 6.2 mg/kg/day; in assay [2], 4.0 mg/kg/day; in assay [3] it was 1.2 mg/kg/day. Besides, the values for the MIC in assay [1], in assay [4] and in assay [7] were 3.1 µg/mL (≈ 6.96 µM), 0.2 µg/mL (≈ 0.449 µM) and 0.39 µg/mL (≈ 0.875 µM), respectively.
With `CCC[C@H](N)C(=O)NC1CCN(c2nc3c(cc2F)c(=O)c(C(=O)O)cn3CC)C1` (stereo partly drawn) [Example 26ff], the MIC in assay [1] was determined as 6.2 µg/mL (≈ 14.8 µM).
Consider `Cl.Cl.N[C@@H](Cc1c[nH]cn1)C(=O)NC1CCN(c2nc3c(cc2F)c(=O)c(C(=O)O)cn3-c2ccc(F)cc2F)C1` (stereo partly drawn) [Example 44c, 7-[3-L-Histidine-Amino-1-Pyrrolidinyl)-1-(2,4-Difluorophenyl)-6-Fluoro-1,4-Dihydro-4-oxo-1,8-Naphthyridine-3-Carboxylic Acid Dihydrochloride], for which the “Oral (ED50)” value was 51.3 mg/kg/day in assay [5] and 4.0 mg/kg/day in assay [2]. Further, the MIC in assay [1] was 32 µg/mL; in assay [4], 64 µg/mL; in assay [6], > 64 µg/mL; in assay [7], 16 µg/mL.
`CCCC(N)C(=O)NC1CCN(c2c(F)cc3c(=O)c(C(=O)O)cn(C4CC4)c3c2F)C1` (stereo not drawn) [Example 26r]: the results for the “Oral (ED50)” value in assay [5], in assay [2] and in assay [3] were 7.3 mg/kg/day, 3.0 mg/kg/day and 2.3 mg/kg/day, respectively.
For `CSCCC(N)C(=O)NC1CCN(c2nc3c(cc2F)c(=O)c(C(=O)O)cn3-c2ccc(F)cc2F)C1` (stereo not drawn) [Example 23], the “Oral (ED50)” value in assay [2] amounted to 1.5 mg/kg/day. Also, the MIC in assay [6] came to 5.0 µg/mL (≈ 9.34 µM).
In the case of `CC(N)C(=O)NC1CCN(c2nc3c(cc2F)c(=O)c(C(=O)O)cn3-c2ccc(F)cc2F)C1` (stereo not drawn) [Example 17], the “Oral (ED50)” value was 1.7 mg/kg/day in assay [2] and 2.0 mg/kg/day in assay [3]. In addition, the MIC in assay [4] was determined as 0.5 µg/mL (≈ 1.05 µM); in assay [6] it was 16 µg/mL (≈ 33.7 µM); in assay [7], 2.0 µg/mL (≈ 4.21 µM).
Regarding `CCCC(N)C(=O)NC1CCN(c2nc3c(cc2F)c(=O)c(C(=O)O)cn3-c2ccc(F)cc2)C1` (stereo not drawn) [Example 26i], the “Oral (ED50)” value in assay [2] worked out at 5.3 mg/kg/day. Moreover, the results for the MIC in assay [4] and in assay [6] were 0.39 µg/mL (≈ 0.803 µM) and 6.2 µg/mL (≈ 12.8 µM), respectively.
Take `Cl.Cl.NCCCC[C@H](N)C(=O)NC1CCN(c2nc3c(cc2F)c(=O)c(C(=O)O)cn3-c2ccc(F)cc2F)C1` (stereo partly drawn) [Example 46, 7-(3-Lys-amino-1-pyrrolidinyl)-1-(2,4-difluorophenyl)-6-fluoro-1,4-dihydro-4-oxo-1,8-naphthyridine-3-carboxylic acid dihydrochloride]: the MIC in assay [1] was 100 µg/mL; in assay [6] it was > 100 µg/mL; in assay [7] it was 100 µg/mL. Further, the “Oral (ED50)” value in assay [2] came out at 3.4 mg/kg/day.
For `CCCC(N)C(=O)NC1CCN(c2cc3c(cc2F)c(=O)c(C(=O)O)cn3C2CC2)C1` (stereo not drawn) [Example 26l], the “Oral (ED50)” value in assay [3] stood at 9.4 mg/kg/day.
Turning to `CC(N)C(=O)NC1CCN(c2c(F)cc3c(=O)c(C(=O)O)cn(C4CC4)c3c2F)C1` (stereo not drawn) [Example 26s], the “Oral (ED50)” value is 5.0 mg/kg/day in assay [5], 4.8 mg/kg/day in assay [2] and 1.8 mg/kg/day in assay [3].
For `CCCC(N)C(=O)NC1CCN(c2cc3c(cc2F)c(=O)c(C(=O)O)cn3-c2ccc(F)cc2F)C1` (stereo not drawn) [Example 26b], the MIC in assay [4] was found to be 0.78 µg/mL (≈ 1.55 µM); in assay [6] it was 6.2 µg/mL (≈ 12.3 µM); in assay [7] it was 0.39 µg/mL (≈ 0.776 µM).
